According to patent US6992079B2, “Substituted 11-phenyl-dibenzazepine compounds useful for the treatment or prevention of diseases characterized by abnormal cell proliferation” (President Fellows of Harvard College, priority 1997, dated 2006):
Where two headings read alike, the source gives them in different places.

Key:
[1] = system: NIH 3T3 mouse fibroblast cells; experiment: Mitogenic assay (mitogen-induced cell proliferation); type: cell-based; settings: Mus musculus, NIH3T3, 10 μM compound
[2] = system: squamous cell carcinoma (KLN-205) cells; experiment: Tumor growth in murine squamous cell carcinoma model; type: in vivo, mouse; settings: KLN-205; subcutaneous injection or oral administration of 80 mg/kg/day for 30 days
[3] = system: SU.86.86 pancreatic adenocarcinoma; experiment: Mouse xenograft tumor growth; type: in vivo, nude mice; settings: SU.86.86 pancreatic adenocarcinoma mouse xenograft
[4] = system: MOLT-4; experiment: In-Vitro Testing SRB panel: Leukemia; type: cell-based; settings: MOLT-4
[5] = system: RPMI-8226; experiment: In-Vitro Testing SRB panel: Leukemia; type: cell-based; settings: RPMI-8226
[6] = system: SR; experiment: In-Vitro Testing SRB panel: Leukemia; type: cell-based
[7] = system: NCI-H23; type: cell-based; settings: NCI-H23
[8] = system: HCT-116; experiment: In-Vitro Testing SRB panel: Colon Cancer; type: cell-based; settings: HCT-116
[9] = system: KM12; experiment: In-Vitro Testing SRB panel: Colon Cancer; type: cell-based; settings: KM12
[10] = system: SF-295; experiment: In-Vitro Testing SRB panel: CNS Cancer; type: cell-based; settings: SF-295
[11] = system: SNB-75; experiment: In-Vitro Testing SRB panel: CNS Cancer; type: cell-based; settings: SNB-75
[12] = system: LOX IMVI; experiment: In-Vitro Testing SRB panel: Melanoma; type: cell-based
[13] = system: SK-MEL-2B; experiment: In-Vitro Testing SRB panel: Melanoma; type: cell-based
[14] = system: SK-MEL-5; experiment: In-Vitro Testing SRB panel: Melanoma; type: cell-based; settings: SK-MEL-5
[15] = system: UACC-62; experiment: In-Vitro Testing SRB panel: Melanoma; type: cell-based; settings: UACC-62
[16] = system: OVCAR-5; experiment: In-Vitro Testing SRB panel: Ovarian Cancer; type: cell-based; settings: OVCAR-5
[17] = system: DU-145; experiment: In-Vitro Testing SRB panel: Prostate Cancer; type: cell-based; settings: DU-145
[18] = system: HS 578T; experiment: In-Vitro Testing SRB panel: Breast Cancer; type: cell-based
[19] = system: MDA-N; experiment: In-Vitro Testing SRB panel: Breast Cancer; type: cell-based
[20] = Homo sapiens, read-out: LC50 (the source's name)

COc1cccc2c1C(c1ccccc1Cl)c1cc(Cl)ccc1N(C(=O)c1ccc([N+](=O)[O-])cc1)C2 (centres unmarked) [Compound 31]
inhibition at 10 µM [1]: 99% | tumor growth [2]: significantly inhibited tumor growth | tumor growth [3]: showed inhibition of tumor growth | GI50 ([4]; Homo sapiens): 0.336 µM | CC50 [4, 20]: > 100 µM | TGI [4]: >1.00E−04 Molar | Percent Growth ([4]; log10 conc -4 Molar): 6% | Percent Growth ([4]; log10 conc -5 Molar): 14% | Percent Growth ([4]; log10 conc -6 Molar): 24% | Percent Growth ([4]; log10 conc -7 Molar): 79% | Percent Growth ([4]; log10 conc -8 Molar): 95% | GI50 ([5]; Homo sapiens): 0.327 µM | CC50 [5, 20]: > 100 µM | TGI [5]: >1.00E−04 Molar | Percent Growth ([5]; log10 conc -4 Molar): 21% | Percent Growth ([5]; log10 conc -5 Molar): 23% | Percent Growth ([5]; log10 conc -6 Molar): 36% | Percent Growth ([5]; log10 conc -7 Molar): 65% | Percent Growth ([5]; log10 conc -8 Molar): 82% | TGI [6]: >1.00E−04 Molar | GI50 ([6]; Homo sapiens): 0.128 µM | CC50 [6, 20]: > 100 µM | Percent Growth ([6]; log10 conc -4 Molar): 4% | Percent Growth ([6]; log10 conc -5 Molar): 7% | Percent Growth ([6]; log10 conc -6 Molar): 13% | Percent Growth ([6]; log10 conc -7 Molar): 54% | Percent Growth ([6]; log10 conc -8 Molar): 94% | GI50 ([7]; Homo sapiens): 2.65 µM | CC50 [7, 20]: > 100 µM | TGI [7]: >1.00E−04 Molar | Percent Growth ([7]; log10 conc -4 Molar): 19% | Percent Growth ([7]; log10 conc -5 Molar): 33% | Percent Growth ([7]; log10 conc -6 Molar): 62% | Percent Growth ([7]; log10 conc -7 Molar): 92% | Percent Growth ([7]; log10 conc -8 Molar): 96% | TGI [8]: 1.00E−04 Molar | Percent Growth ([8]; log10 conc -4 Molar): 12% | Percent Growth ([8]; log10 conc -5 Molar): 17% | Percent Growth ([8]; log10 conc -6 Molar): 32% | Percent Growth ([8]; log10 conc -7 Molar): 92% | Percent Growth ([8]; log10 conc -8 Molar): 100% | GI50 ([8]; Homo sapiens): 0.502 µM | CC50 [8, 20]: > 100 µM | GI50 ([9]; Homo sapiens): 0.519 µM | CC50 [9, 20]: > 100 µM | TGI [9]: >1.00E−04 Molar | Percent Growth ([9]; log10 conc -4 Molar): 20% | Percent Growth ([9]; log10 conc -5 Molar): 32% | Percent Growth ([9]; log10 conc -6 Molar): 38% | Percent Growth ([9]; log10 conc -7 Molar): 80% | Percent Growth ([9]; log10 conc -8 Molar): 99% | GI50 ([10]; Homo sapiens): 13.5 µM | CC50 [10, 20]: > 100 µM | TGI [10]: >1.00E−04 Molar | Percent Growth ([10]; log10 conc -4 Molar): 34% | Percent Growth ([10]; log10 conc -5 Molar): 52% | Percent Growth ([10]; log10 conc -6 Molar): 75% | Percent Growth ([10]; log10 conc -7 Molar): 98% | Percent Growth ([10]; log10 conc -8 Molar): 97% | GI50 ([11]; Homo sapiens): 5.9 µM | CC50 [11, 20]: > 100 µM | TGI [11]: 6.40E−05 Molar | Percent Growth ([11]; log10 conc -4 Molar): −11% | Percent Growth ([11]; log10 conc -5 Molar): 44% | Percent Growth ([11]; log10 conc -6 Molar): 82% | Percent Growth ([11]; log10 conc -7 Molar): 100% | Percent Growth ([11]; log10 conc -8 Molar): 103% | TGI [12]: >1.00E−04 Molar | GI50 ([12]; Homo sapiens): 0.617 µM | CC50 [12, 20]: > 100 µM | Percent Growth ([12]; log10 conc -4 Molar): 13% | Percent Growth ([12]; log10 conc -5 Molar): 12% | Percent Growth ([12]; log10 conc -6 Molar): 39% | Percent Growth ([12]; log10 conc -7 Molar): 93% | Percent Growth ([12]; log10 conc -8 Molar): 97% | GI50 ([13]; Homo sapiens): 7.47 µM | CC50 ([13]; Homo sapiens, SK-MEL-2B, read-out: LC50 (the source's name)): > 100 µM | TGI ([13]; SK-MEL-2B): >1.00E−04 Molar | Percent Growth ([13]; SK-MEL-2B, log10 conc -4 Molar): 31% | Percent Growth ([13]; SK-MEL-2B, log10 conc -5 Molar): 48% | Percent Growth ([13]; SK-MEL-2B, log10 conc -6 Molar): 62% | Percent Growth ([13]; SK-MEL-2B, log10 conc -7 Molar): 87% | Percent Growth ([13]; SK-MEL-2B, log10 conc -8 Molar): 92% | GI50 ([14]; Homo sapiens): 0.597 µM | CC50 [14, 20]: > 100 µM | TGI [14]: >1.00E−04 Molar | Percent Growth ([14]; log10 conc -4 Molar): 17% | Percent Growth ([14]; log10 conc -5 Molar): 27% | Percent Growth ([14]; log10 conc -6 Molar): 41% | Percent Growth ([14]; log10 conc -7 Molar): 81% | Percent Growth ([14]; log10 conc -8 Molar): 94% | GI50 ([15]; Homo sapiens): 0.43 µM | CC50 [15, 20]: > 100 µM | TGI [15]: >1.00E−04 Molar | Percent Growth ([15]; log10 conc -4 Molar): 14% | Percent Growth ([15]; log10 conc -5 Molar): 32% | Percent Growth ([15]; log10 conc -6 Molar): 36% | Percent Growth ([15]; log10 conc -7 Molar): 74% | Percent Growth ([15]; log10 conc -8 Molar): 90% | GI50 ([16]; Homo sapiens): 91.7 µM | CC50 [16, 20]: > 100 µM | TGI [16]: >1.00E−04 Molar | Percent Growth ([16]; log10 conc -4 Molar): 49% | Percent Growth ([16]; log10 conc -5 Molar): 70% | Percent Growth ([16]; log10 conc -6 Molar): 82% | Percent Growth ([16]; log10 conc -7 Molar): 102% | Percent Growth ([16]; log10 conc -8 Molar): 101% | TGI [17]: >1.00E−04 Molar | Percent Growth ([17]; log10 conc -4 Molar): 26% | Percent Growth ([17]; log10 conc -5 Molar): 43% | Percent Growth ([17]; log10 conc -6 Molar): 84% | Percent Growth ([17]; log10 conc -7 Molar): 105% | Percent Growth ([17]; log10 conc -8 Molar): 105% | GI50 ([17]; Homo sapiens): 6.84 µM | CC50 [17, 20]: > 100 µM | TGI ([18]; HS 578T): >1.00E−04 Molar | Percent Growth ([18]; HS 578T, log10 conc -4 Molar): 17% | Percent Growth ([18]; HS 578T, log10 conc -5 Molar): 31% | Percent Growth ([18]; HS 578T, log10 conc -6 Molar): 49% | Percent Growth ([18]; HS 578T, log10 conc -7 Molar): 74% | Percent Growth ([18]; HS 578T, log10 conc -8 Molar): 90% | GI50 ([18]; Homo sapiens, Hs-578T): 0.913 µM | CC50 ([18]; Homo sapiens, HS 578T, read-out: LC50 (the source's name)): > 100 µM | TGI [19]: >1.00E−04 Molar | GI50 ([19]; Homo sapiens): 1.97 µM | CC50 [19, 20]: > 100 µM | Percent Growth ([19]; log10 conc -4 Molar): 22% | Percent Growth ([19]; log10 conc -5 Molar): 33% | Percent Growth ([19]; log10 conc -6 Molar): 57% | Percent Growth ([19]; log10 conc -7 Molar): 90% | Percent Growth ([19]; log10 conc -8 Molar): 96%
